# Measurements taken from US8546579B2, “Bicycloheteroaryl compounds as P2X7 modulators and uses thereof” (Evotec (US) Inc., priority 2006, dated 2013).
# Molecular target: T1, P2X7 receptor (Homo sapiens, UniProt Q99572)
# T1 construct: host or cells: THP-1 cells differentiated with LPS and IFN-γ
# T1 sequence (Q99572 1-595): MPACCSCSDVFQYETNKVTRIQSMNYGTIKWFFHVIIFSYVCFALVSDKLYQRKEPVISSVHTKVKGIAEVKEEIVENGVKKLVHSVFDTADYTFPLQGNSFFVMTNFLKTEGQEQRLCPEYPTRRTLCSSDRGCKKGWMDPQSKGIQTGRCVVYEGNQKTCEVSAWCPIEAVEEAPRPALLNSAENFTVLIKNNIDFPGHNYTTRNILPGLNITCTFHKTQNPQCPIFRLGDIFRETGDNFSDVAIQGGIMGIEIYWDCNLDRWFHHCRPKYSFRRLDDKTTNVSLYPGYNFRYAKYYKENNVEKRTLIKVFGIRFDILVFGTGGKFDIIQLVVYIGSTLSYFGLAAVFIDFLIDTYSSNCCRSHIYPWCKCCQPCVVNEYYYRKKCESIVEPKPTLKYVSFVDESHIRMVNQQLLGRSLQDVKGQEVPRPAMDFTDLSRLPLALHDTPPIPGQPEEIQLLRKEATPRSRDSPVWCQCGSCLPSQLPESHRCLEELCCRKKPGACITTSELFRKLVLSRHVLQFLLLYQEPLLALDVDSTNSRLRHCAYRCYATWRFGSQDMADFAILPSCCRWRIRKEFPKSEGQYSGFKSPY
# Test: IL-1β release assay in differentiated THP-1 cells stimulated with BzATP (Example 9)
# Format: cell-based
# Parameters: inhibition: dose or concentration left out as unconfirmed
# Settings: THP-1; read-out: IL-1β % Inhib.
# Procedure, shortened: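 THP-1 cells differentiated 16 h with LPS and IFN-γ (100 ng/mL each), re-primed 2 h with LPS, then compound-pretreated 30 min before 250 uM BzATP for 45 min. Supernatant IL-1β quantified by ELISA; background-adjusted percent inhibition fitted to four-parameter logistic for IC50.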
row,SMILES,inhibition [%]
1,O=C(CCc1ccc(Cl)cc1)Nc1cccc2c(=O)n(Cc3cccnc3)ccc12 [Compound 1455],0 to 25
2,COc1ccc(C(=O)Nc2cccc3c(=O)n(CC4CCN(C)CC4)ccc23)c(C)c1 [Compound 1456],0 to 25
3,Cc1ccccc1CCC(=O)Nc1cccc2c(=O)n(CC3CCN(C)CC3)ccc12 [Compound 1457],0 to 25
4,CN1CCC(Cn2ccc3c(NC(=O)c4ccc(-c5ccccc5)o4)cccc3c2=O)CC1 [Compound 1458],0 to 25
5,COc1cccc(CCC(=O)Nc2cccc3c(=O)n(CC4CCN(C)CC4)ccc23)c1 [Compound 1459],26 to 50
6,CN1CCC(Cn2ccc3c(NC(=O)c4ccc(Cl)cc4Cl)cccc3c2=O)CC1 [Compound 1460],0 to 25
7,Cc1cccc(C(=O)Nc2cccc3c(=O)n(CC4CCN(C)CC4)ccc23)c1C [Compound 1461],0 to 25
8,Cc1ccc(C(=O)Nc2cccc3c(=O)n(CC4CCN(C)CC4)ccc23)c(C)c1 [Compound 1462],0 to 25
9,Cc1ccc(C)c(C(=O)Nc2cccc3c(=O)n(CC4CCN(C)CC4)ccc23)c1 [Compound 1463],0 to 25
10,COc1cc(OC)cc(C(=O)Nc2cccc3c(=O)n(CC4CCN(C)CC4)ccc23)c1 [Compound 1464],0 to 25
11,Cc1cccc(C(=O)Nc2cccc3c(=O)n(CC4CCN(C)CC4)ccc23)c1 [Compound 1465],0 to 25
12,CC(C(=O)Nc1cccc2c(=O)n(CC3CCN(C)CC3)ccc12)c1ccccc1 (stereo not shown) [Compound 1466],0 to 25
13,COc1ccccc1CCC(=O)Nc1cccc2c(=O)n(CC3CCN(C)CC3)ccc12 [Compound 1467],0 to 25
14,COc1ccc(CCC(=O)Nc2cccc3c(=O)n(CC4CCN(C)CC4)ccc23)cc1 [Compound 1468],0 to 25
15,CN1CCC(Cn2ccc3c(NC(=O)c4cccc5ccccc45)cccc3c2=O)CC1 [Compound 1469],0 to 25
16,CN1CCC(Cn2ccc3c(NC(=O)Cc4cccc5ccccc45)cccc3c2=O)CC1 [Compound 1470],0 to 25
17,CN1CCC(Cn2ccc3c(NC(=O)c4ccc5ccccc5c4)cccc3c2=O)CC1 [Compound 1471],0 to 25
18,COc1ccc(OC)c(CC(=O)Nc2cccc3c(=O)n(CC4CCN(C)CC4)ccc23)c1 [Compound 1472],0 to 25
19,COc1ccc(CC(=O)Nc2cccc3c(=O)n(CC4CCN(C)CC4)ccc23)cc1OC [Compound 1473],0 to 25
20,COc1ccc(CC(=O)Nc2cccc3c(=O)n(CC4CCN(C)CC4)ccc23)cc1 [Compound 1474],0 to 25
21,CN1CCC(Cn2ccc3c(NC(=O)CCCc4ccccc4)cccc3c2=O)CC1 [Compound 1475],0 to 25
22,COc1cc(CC(=O)Nc2cccc3c(=O)n(CC4CCN(C)CC4)ccc23)cc(OC)c1 [Compound 1477],0 to 25
23,Cc1cc(Cl)ccc1C(=O)Nc1cccc2c(=O)n(CC3CCN(C)CC3)ccc12 [Compound 1478],0 to 25
24,CN1CCC(Cn2ccc3c(NC(=O)CC4CC5CC[C@H]4C5)cccc3c2=O)CC1 (stereo partly shown) [Compound 1479],0 to 25

row,SMILES,inhibition [%]
1,CN1CCC(Cn2ccc3c(NC(=O)c4ccc5c(c4)OCCCO5)cccc3c2=O)CC1 [Compound 1480],0 to 25
2,Cc1c(Cl)cccc1C(=O)Nc1cccc2c(=O)n(CC3CCN(C)CC3)ccc12 [Compound 1481],0 to 25
3,Cc1cc(C)cc(CC(=O)Nc2cccc3c(=O)n(CC4CCN(C)CC4)ccc23)c1 [Compound 1482],26 to 50
4,CN1CCC(Cn2ccc3c(NC(=O)C4C[C@@H]5CC[C@H]4C5)cccc3c2=O)CC1 (stereo partly shown) [Compound 1483],26 to 50
5,COc1ccc(CC(=O)Nc2cccc3c(=O)n(CC4CCN(C)CC4)ccc23)c(OC)c1 [Compound 1484],0 to 25
6,CN1CCC(Cn2ccc3c(NC(=O)CCc4ccc(Cl)cc4)cccc3c2=O)CC1 [Compound 1485],0 to 25
7,Cc1ccc(Cl)c(C(=O)Nc2cccc3c(=O)n(CC4CCN(C)CC4)ccc23)c1 [Compound 1486],0 to 25
8,Cc1ccc(Cl)cc1C(=O)Nc1cccc2c(=O)n(CC3CCN(C)CC3)ccc12 [Compound 1487],0 to 25
9,Cc1cccc(CCC(=O)Nc2cccc3c(=O)n(CC4CCN(C)CC4)ccc23)c1 [Compound 1488],0 to 25
10,Cc1cccc(C(=O)Nc2cccc3c(=O)n(CC4CCN(C)CC4)ccc23)c1Cl [Compound 1489],0 to 25
11,COc1ccc(C(=O)Nc2cccc3c(=O)n(CC4CCN(C)CC4)ccc23)cc1C [Compound 1490],0 to 25
12,Cc1ccc(CCC(=O)Nc2cccc3c(=O)n(CC4CCN(C)CC4)ccc23)c(C)c1 [Compound 1491],0 to 25
13,CN1CCC(Cn2ccc3c(NC(=O)CCc4cccc(Cl)c4)cccc3c2=O)CC1 [Compound 1492],0 to 25
14,COc1ccc(C(=O)Nc2cccc3c(=O)n(CCCN4CCCC4=O)ccc23)c(C)c1 [Compound 1493],0 to 25
15,C[C@H]1CC[C@H](C(=O)Nc2cccc3c(=O)n(CCCN4CCCC4=O)ccc23)CC1 [Compound 1494],0 to 25
16,Cc1ccccc1CCC(=O)Nc1cccc2c(=O)n(CCCN3CCCC3=O)ccc12 [Compound 1495],0 to 25
17,O=C(Nc1cccc2c(=O)n(CCCN3CCCC3=O)ccc12)c1ccc(-c2ccccc2)o1 [Compound 1496],0 to 25
18,COc1cccc(CCC(=O)Nc2cccc3c(=O)n(CCCN4CCCC4=O)ccc23)c1 [Compound 1497],26 to 50
19,Cc1cc(C)c(CC(=O)Nc2cccc3c(=O)n(CCCN4CCCC4=O)ccc23)c(C)c1 [Compound 1498],0 to 25
20,Cc1ccc(C)c(CC(=O)Nc2cccc3c(=O)n(CCCN4CCCC4=O)ccc23)c1 [Compound 1499],0 to 25
21,COc1ccc(C(=O)Nc2cccc3c(=O)n(CCCN4CCCC4=O)ccc23)cc1Cl [Compound 1500],0 to 25
22,O=C(CCc1ccccc1Cl)Nc1cccc2c(=O)n(CCCN3CCCC3=O)ccc12 [Compound 1501],0 to 25
23,O=C(CCc1ccc2c(c1)OCO2)Nc1cccc2c(=O)n(CCCN3CCCC3=O)ccc12 [Compound 1502],0 to 25
24,Cc1cc(C(=O)Nc2cccc3c(=O)n(CCCN4CCCC4=O)ccc23)ccc1Cl [Compound 1503],0 to 25

row,SMILES,inhibition [%]
1,O=C(Nc1cccc2c(=O)n(CCCN3CCCC3=O)ccc12)c1ccccc1Cl [Compound 1504],51 to 75
2,O=C(Nc1cccc2c(=O)n(CCCN3CCCC3=O)ccc12)c1ccc(Cl)cc1Cl [Compound 1505],26 to 50
3,Cc1ccccc1C(=O)Nc1cccc2c(=O)n(CCCN3CCCC3=O)ccc12 [Compound 1507],0 to 25
4,Cc1cccc(C(=O)Nc2cccc3c(=O)n(CCCN4CCCC4=O)ccc23)c1C [Compound 1508],0 to 25
5,Cc1ccc(C(=O)Nc2cccc3c(=O)n(CCCN4CCCC4=O)ccc23)c(C)c1 [Compound 1509],0 to 25
6,Cc1ccc(C)c(C(=O)Nc2cccc3c(=O)n(CCCN4CCCC4=O)ccc23)c1 [Compound 1510],0 to 25
7,O=C(Nc1cccc2c(=O)n(CCCN3CCCC3=O)ccc12)c1cc(Cl)cc(Cl)c1 [Compound 1511],0 to 25
8,COc1cc(OC)cc(C(=O)Nc2cccc3c(=O)n(CCCN4CCCC4=O)ccc23)c1 [Compound 1512],0 to 25
9,Cc1cccc(C(=O)Nc2cccc3c(=O)n(CCCN4CCCC4=O)ccc23)c1 [Compound 1513],0 to 25
10,CCOc1ccc(C(=O)Nc2cccc3c(=O)n(CCCN4CCCC4=O)ccc23)cc1 [Compound 1514],0 to 25
11,O=C(Nc1cccc2c(=O)n(CCCN3CCCC3=O)ccc12)c1ccc(-c2ccccc2)cc1 [Compound 1515],0 to 25
12,CC(C)(C)c1ccc(C(=O)Nc2cccc3c(=O)n(CCCN4CCCC4=O)ccc23)cc1 [Compound 1516],0 to 25
13,CC(C(=O)Nc1cccc2c(=O)n(CCCN3CCCC3=O)ccc12)c1ccccc1 (stereo not shown) [Compound 1517],0 to 25
14,COc1ccccc1CCC(=O)Nc1cccc2c(=O)n(CCCN3CCCC3=O)ccc12 [Compound 1518],0 to 25
15,O=C(Cc1ccccc1Cl)Nc1cccc2c(=O)n(CCCN3CCCC3=O)ccc12 [Compound 1519],0 to 25
16,COc1ccc(CC(=O)Nc2cccc3c(=O)n(CCCN4CCCC4=O)ccc23)cc1OC [Compound 1520],0 to 25
17,Cc1cccc(CC(=O)Nc2cccc3c(=O)n(CCCN4CCCC4=O)ccc23)c1 [Compound 1521],0 to 25
18,COc1ccc(CC(=O)Nc2cccc3c(=O)n(CCCN4CCCC4=O)ccc23)cc1 [Compound 1522],0 to 25
19,CCOc1ccc(CC(=O)Nc2cccc3c(=O)n(CCCN4CCCC4=O)ccc23)cc1 [Compound 1523],0 to 25
20,Cc1ccc(CC(=O)Nc2cccc3c(=O)n(CCCN4CCCC4=O)ccc23)cc1 [Compound 1524],0 to 25
21,O=C(CCCc1ccccc1)Nc1cccc2c(=O)n(CCCN3CCCC3=O)ccc12 [Compound 1525],0 to 25
22,O=C(Nc1cccc2c(=O)n(CCCN3CCCC3=O)ccc12)c1cc2ccccc2o1 [Compound 1526],0 to 25
